Patent US5210193A, “Piperazine derivatives” (American Cyanamid Company, priority 1990, dated 1993)
Converted amounts (≈) assume the structure as drawn. Read-outs that look alike come from different tables or passages of the source.

How the values were obtained:
[1] = system: Streptococcus faecalis VGH 84-65; test: in vitro antibacterial MIC, agar plate dilution; type: cell-based; settings: Enterococcus faecalis, VGH8465, 18 h, 35° C., read-out: MIC
Outline: (§1)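 Agar plate dilution on Mueller-Hinton agar, inoculum about 10^4 CFU per spot applied with a Steers replicator. MIC (mcg/ml) is the lowest compound concentration preventing visible growth after 18 h at 35 °C.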

[2] = system: Staphylococcus epidermidis VGH 84-40; test: in vitro antibacterial MIC, agar plate dilution; type: cell-based; settings: VGH8440, 18 hours, 35° C., read-out: MIC
Outline: as §1

[3] = system: Staphylococcus epidermidis CMC 83-135; test: in vitro antibacterial MIC, agar plate dilution; type: cell-based; settings: CMC83135, 18 hours, 35° C., read-out: MIC
Outline: as §1

[4] = system: Acinetobacter calcoaceticus MOR 84-43; test: in vitro antibacterial MIC, agar plate dilution; type: cell-based; settings: MOR8443, 18 hours, 35° C., read-out: MIC
Outline: as §1

[5] = system: Staphylococcus aureus CMC 83-127; test: in vitro antibacterial MIC, agar plate dilution; type: cell-based; settings: Staphylococcus aureus, CMC83127, 18 h, 35° C., read-out: MIC
Outline: as §1

[6] = system: Staphylococcus aureus ATTC 29213; test: in vitro antibacterial MIC, agar plate dilution; type: cell-based; settings: Staphylococcus aureus, ATTC29213, 18 h, 35° C., read-out: MIC
Outline: as §1

[7] = system: Staphylococcus epidermidis IO 83-58; test: in vitro antibacterial MIC, agar plate dilution; type: cell-based; settings: IO8358, 18 hours, 35° C., read-out: MIC
Outline: as §1

[8] = system: Escherichia coli PRNT 311; test: in vitro antibacterial MIC, agar plate dilution; type: cell-based; settings: PRNT311, 18 hours, 35° C., read-out: MIC
Outline: as §1

[9] = system: Staphylococcus aureus Smith; test: in vitro antibacterial MIC, agar plate dilution; type: cell-based; settings: 35° C.
Outline: as §1

Escherichia coli NAR 311 = test: in vitro antibacterial MIC, agar plate dilution; type: cell-based; settings: NAR311, 18 hours, 35° C., read-out: MIC
Outline: as §1

[10] = system: Enterobacter cloacae K 84-10; test: in vitro antibacterial MIC, agar plate dilution; type: cell-based; settings: Enterobacter cloacae, K8410, 18 h, 35° C., read-out: MIC
Outline: as §1

[11] = system: Staphylococcus aureus VGH 84-45; test: in vitro antibacterial MIC, agar plate dilution; type: cell-based; settings: Staphylococcus aureus, VGH8445, 18 h, 35° C., read-out: MIC
Outline: as §1

[12] = system: Staphylococcus aureus VGH 84-46; test: in vitro antibacterial MIC, agar plate dilution; type: cell-based; settings: 18 hours, 35° C.
Outline: as §1

[13] = system: Morganella morganii CMC 84-37; test: in vitro antibacterial MIC, agar plate dilution; type: cell-based; settings: Morganella morganii, CMC8437, 18 h, 35° C., read-out: MIC
Outline: as §1

[14] = system: Pseudomonas aeruginosa LL-1244; test: in vitro antibacterial MIC, agar plate dilution; type: cell-based; settings: Pseudomonas aeruginosa, LL1244, 18 h, 35° C., read-out: MIC
Outline: as §1

[15] = system: Escherichia coli CMC 84-11; test: in vitro antibacterial MIC, agar plate dilution; type: cell-based; settings: Escherichia coli, CMC8411, 18 h, 35° C., read-out: MIC
Outline: as §1

[16] = system: Klebsiella pneumoniae MOR 84-4; test: in vitro antibacterial MIC, agar plate dilution; type: cell-based; settings: Klebsiella pneumoniae, MOR844, 18 h, 35° C., read-out: MIC
Outline: as §1

[17] = system: Staphylococcus aureus CMC 83-128; test: in vitro antibacterial MIC, agar plate dilution; type: cell-based; settings: CMC83128, 18 hours, 35° C., read-out: MIC
Outline: as §1

[18] = system: Serratia marcescens K 84-18; test: in vitro antibacterial MIC, agar plate dilution; type: cell-based; settings: Serratia marcescens, K8418, 18 h, 35° C., read-out: MIC
Outline: as §1

[19] = system: Escherichia coli ATCC 25922; test: in vitro antibacterial MIC, agar plate dilution; type: cell-based; settings: Escherichia coli, ATCC25922, 18 h, 35° C., read-out: MIC
Outline: as §1

[20] = system: Proteus rettgeri CMC 84-41; test: in vitro antibacterial MIC, agar plate dilution; type: cell-based; settings: Providencia rettgeri, CMC8441, 18 h, 35° C., read-out: MIC
Outline: as §1

[21] = system: Morganella morganii VGH 84-11; test: in vitro antibacterial MIC, agar plate dilution; type: cell-based; settings: VGH8411, 18 hours, 35° C., read-out: MIC
Outline: as §1

Klebsiella pneumoniae AD [22] = test: in vitro antibacterial MIC, agar plate dilution; type: cell-based; settings: Klebsiella pneumoniae, 18 h, 35° C., read-out: MIC
Outline: as §1

[23] = system: Serratia marcescens F 0-35; test: in vitro antibacterial MIC, agar plate dilution; type: cell-based; settings: Serratia marcescens, F035, 18 h, 35° C., read-out: MIC
Outline: as §1

[24] = system: Streptococcus faecalis ATTC 29212; test: in vitro antibacterial MIC, agar plate dilution; type: cell-based; settings: Enterococcus faecalis, ATTC29212, 18 hours, 35° C., read-out: MIC
Outline: as §1

[25] = system: Escherichia coli CMC 84-16; test: in vitro antibacterial MIC, agar plate dilution; type: cell-based; settings: Escherichia coli, CMC8416, 18 h, 35° C., read-out: MIC
Outline: as §1

[26] = system: Enterobacter aerogenes VGH 84-36; test: in vitro antibacterial MIC, agar plate dilution; type: cell-based; settings: Klebsiella aerogenes, VGH8436, 18 hours, 35° C., read-out: MIC
Outline: as §1

[27] = system: Staphylococcus Spp saprophiticus VGH 84-50; test: in vitro antibacterial MIC, agar plate dilution; type: cell-based; settings: 18 hours, 35° C., read-out: MIC
Outline: as §1

[28] = system: Pseudomonas aeruginosa VGH 84-4; test: in vitro antibacterial MIC, agar plate dilution; type: cell-based; settings: Pseudomonas aeruginosa, VGH844, 18 h, 35° C., read-out: MIC
Outline: as §1

[29] = system: Enterobacter cloacae VGH 84-37; test: in vitro antibacterial MIC, agar plate dilution; type: cell-based; settings: Enterobacter cloacae, VGH8437, 18 h, 35° C., read-out: MIC
Outline: as §1

[30] = system: Staphylococcus aureus Smith; test: in vivo antibacterial activity, survival of infected mice (Table III); set-up: species or system Charles River CD-1 mice; settings: subcutaneous
Protocol: (§2) Charles River CD-1 mice were infected with either Klebsiella pneumoniae AD or Staphylococcus aureus Smith. A single subcutaneous dose of the test compound was administered 1/2 hour after infection. […] The results appear in Tables II and III, wherein the representative test compounds are identified by the number of their hereinafter described examples.

Klebsiella pneumoniae AD [31] = test: in vivo antibacterial activity, survival of infected mice (Table II); set-up: species or system Charles River CD-1 mice; settings: subcutaneous
Protocol: as §2

[32] = system: Staphylococcus aureus ATCC 25913; test: in vitro antibacterial MIC, agar plate dilution; type: cell-based; settings: ATCC25913, 18 hours, 35° C.
Outline: as §1

## CCn1cc(C(=O)O)c(=O)c2cc(F)c(N3CCNC(CF)C3)c(F)c21 (single isomer, unassigned; (-)) [Example 64, (-)-N-Ethy6,8-difluoro-7-[3-(fluoromethyl)-1-piperazinyl]-1,4-dihydro-4-oxo-3-quinolinecarboxylic acid]
[1]
  MIC: 4 µg/mL (≈ 10.8 µM)
[2]
  MIC: 0.25 µg/mL (≈ 0.677 µM)
[3]
  MIC: 0.25 µg/mL (≈ 0.677 µM)
[4]
  MIC: 0.5 µg/mL (≈ 1.35 µM)
[5]
  MIC: 0.06 µg/mL (≈ 0.162 µM)
[6]
  MIC: 0.25 µg/mL (≈ 0.677 µM)
[7]
  MIC: 0.25 µg/mL (≈ 0.677 µM)
[8]
  MIC: 0.06 µg/mL (≈ 0.162 µM)
[9]; 18 hours
  MIC: 0.12 µg/mL (≈ 0.325 µM)
Escherichia coli NAR 311
  MIC: 1 µg/mL (≈ 2.71 µM)
[10]
  MIC: 0.06 µg/mL (≈ 0.162 µM)
[11]
  MIC: 0.12 µg/mL (≈ 0.325 µM)
[12]
  MIC: 0.12 µg/mL (≈ 0.325 µM)
[13]
  MIC: 0.06 µg/mL (≈ 0.162 µM)
[14]
  MIC: 8 µg/mL (≈ 21.7 µM)
[15]
  MIC: 0.03 µg/mL (≈ 0.0812 µM)
[16]
  MIC: 0.06 µg/mL (≈ 0.162 µM)
[17]
  MIC: 0.25 µg/mL (≈ 0.677 µM)
[18]
  MIC: 0.25 µg/mL (≈ 0.677 µM)
[19]
  MIC: 0.03 µg/mL (≈ 0.0812 µM)
[20]
  MIC: 0.25 µg/mL (≈ 0.677 µM)
[21]
  MIC: 0.12 µg/mL (≈ 0.325 µM)
Klebsiella pneumoniae AD [22]
  MIC: 0.06 µg/mL (≈ 0.162 µM)
[23]
  MIC: 0.5 µg/mL (≈ 1.35 µM)
[24]
  MIC: 4 µg/mL (≈ 10.8 µM)
[25]
  MIC: 0.03 µg/mL (≈ 0.0812 µM)
[26]
  MIC: 0.12 µg/mL (≈ 0.325 µM)
[27]
  MIC: 1 µg/mL (≈ 2.71 µM)
[28]
  MIC: 2 µg/mL (≈ 5.42 µM)
[29]
  MIC: 0.06 µg/mL (≈ 0.162 µM)

## CCn1cc(C(=O)O)c(=O)c2cc(F)c(N3CCNC(c4cc5cc(Cl)ccc5o4)C3)cc21 (stereo not drawn) [Example 18, 7-[3-(5-Chloro-2-benzofuranyl)-1-piperazinyl]-1-ethyl-6-fluoro-1,4-dihydro-4-oxo-3-quinolinecarboxylic acid]
[30]; 0.5 mg/kg single dose
  Survival Ratio 7 Days After Infection: 0/5
[30]; 1 mg/kg single dose
  Survival Ratio 7 Days After Infection: 0/5
[30]; 2 mg/kg single dose
  Survival Ratio 7 Days After Infection: 0/5
[30]; 4 mg/kg single dose
  Survival Ratio 7 Days After Infection: 0/5
[30]; 8 mg/kg single dose
  Survival Ratio 7 Days After Infection: 2/5
Klebsiella pneumoniae AD [31]; 0.25 mg/kg single dose
  Survival Ratio 7 Days After Infection: 0/5
Klebsiella pneumoniae AD [31]; 1 mg/kg single dose
  Survival Ratio 7 Days After Infection: 0/5
Klebsiella pneumoniae AD [31]; 4 mg/kg single dose
  Survival Ratio 7 Days After Infection: 1/5
Klebsiella pneumoniae AD [31]; 16 mg/kg single dose
  Survival Ratio 7 Days After Infection: 4/5
Klebsiella pneumoniae AD [31]; 64 mg/kg single dose
  Survival Ratio 7 Days After Infection: 5/5
[9]; Staphylococcus aureus, 18 h, read-out: MIC
  MIC: ≤ 0.12 µg/mL
[32]
  MIC: 2 µg/mL (≈ 4.26 µM)
[15]
  MIC: 16 µg/mL (≈ 34 µM)
[16]
  MIC: 32 µg/mL (≈ 68.1 µM)
[19]
  MIC: 16 µg/mL (≈ 34 µM)
[20]
  MIC: 16 µg/mL (≈ 34 µM)
[21]
  MIC: 16 µg/mL (≈ 34 µM)
Klebsiella pneumoniae AD [22]
  MIC: 16 µg/mL (≈ 34 µM)
[26]
  MIC: 128 µg/mL (≈ 272 µM)
[28]
  MIC: > 256 µg/mL
[29]
  MIC: 16 µg/mL (≈ 34 µM)
